Source: US20220313719A1, “METHODS OF TREATING DISEASES ASSOCIATED WITH CHANGES IN PLATELET COUNTS USING PROTEIN KINASE A ACTIVATOR AND INHIBITOR” (Soochow university, priority 2017, published 2022)

Tests used:
platelets = test: Anti-platelet antibody R300-induced platelet clearance (ITP mouse model); format: in vivo, ICR mice; conditions: for platelet counts versus NS group at 30 min: injection 10 min before R300 (0.1 μg/g), PGE2 20 ng/ml, cAMP 12 μg/ml, P<0.05
Description: After 10 min, the anti-platelet antibody R300 (0.2 μg/kg) was intraperitoneally injected into the mice, and the whole blood was collected from the orbital vein at different time points. The platelets were counted by a Sysmex XP-100 blood analyzer, 6 mice were used per group, and the results were expressed as mean±standard deviation (FIG. 12C).
12 ICR mice were divided into two groups with 6 mice in each group. The 6 mice in the experimental group were injected with milrinone (1 mg/kg), and the 6 mice in the control group were injected with normal saline (NS). 10 min after the mice were injected with the milrinone (1 mg/kg) (or NS) in the tail vein, the mice were intraperitoneally injected with the R300 antibody (0.1 mg/kg). Blood sampling and counting were then carried out at each time point.
First, the mice were sampled for blood as a reference value. Then the control group and the test group were injected with 0.9% NS and PGE2 (20 ng/ml), respectively. After 10 min, R300 (0.1 μg/g) was injected. Blood sampling and counting were then carried out at 30 min, 2 h, 4 h, 6 h, and 24 h.
First, the mice were sampled for blood as a reference value. Then the control group and the test group were injected with 0.9% NS and cAMP (12 μg/ml), respectively. After 10 min, R300 (0.1 μg/g) was injected. Blood sampling and counting were then carried out at 30 min, 2 h, 4 h, 6 h, and 24 h.
First, the mice were sampled for blood as a reference value. Then the control group and the test group were injected with 0.9% NS and aminophylline (0.24 mmol/L), respectively. After 10 min, R300 (0.1 μg/g) was injected. Then blood sampling and counting were carried out at 30 min, 2 h, 4 h, 6 h, and 24 h (FIG. 20).

washed platelets [1] = test: Fasudil platelet apoptosis (ΔΨm and PS exposure) with thrombin; format: cell-based, human; conditions: 10 min room temperature, then thrombin 0.1 U/ml 30 min 37° C.
Description: Washed platelets (3×10^8/mL) were incubated with different Fasudil or negative control (normal saline) for 10 min at room temperature. Thereafter, except the negative control, thrombin (0.1 U/ml) was added to each group, and incubation was carried out for 30 min at 37° C. Platelet ΔΨm was measured using the lipophilic cationic dye JC-1. JC-1 with a final concentration of 2 μg/ml was added to the treated platelets, and the platelets were incubated at 37° C. for 5 min in the dark, and detected by using the flow cytometer. […] The JC-1 monomer (λex 514 nm, λem 529 nm) and the polymer (λex 585 nm, λem 590 nm) were determined by calculating the proportion of flow red fluorescence (JC-1 polymer) or green fluorescence (JC-1 monomer) (FIG. 22).
Washed platelets (3×10^8/mL) were incubated with different Fasudil or negative control (normal saline) for 10 min at room temperature. Thereafter, except the negative control, thrombin (0.1 U/ml) was added to each group, and incubation was carried out for 30 min at 37° C. After that, Annexin V buffer, treated platelets, and Annexin V-FITC in a ratio of 50:10:1 were incubated for 15 min at room temperature in the dark, and detected by using the flow cytometer (FIG. 22).

washed platelets [2] = test: Platelet shrinkage experiment (FSC of GPIIb/IIIa positive platelets); format: cell-based, human
Description: Washed platelets were incubated with different concentrations of H89 (12.5 μM, 25 μM, 37.5 μM and 50 μM) or negative control (DMSO) at room temperature for 10 min. The platelets and the SZ21 antibody were then incubated for 30 min at room temperature. The platelets were centrifuged, resuspended with the FITC-labeled goat-anti-mouse antibody, and incubated for 30 min at room temperature in the dark. The platelets were collected by using a flow cytometer, and platelet scatter plots collected by FSC-FL1 were used to analyze the platelets. The degree of shrinkage of the platelets was evaluated by analyzing the change in FSC and evaluating the degree of FSC reduction in GPIIb/IIIa positive cells. A23187 was used as a positive control. DMSO was used as a negative control.
(§1) Different concentrations of H89 (0, 12.5, 25, 37.5, and 50 μM) were applied to washed platelets at 22° C. for 160 min, and mitochondrial transmembrane potential depolarization and PS exposure of platelets were detected by using the flow cytometer. The experiments were repeated four times. The washed platelets were pretreated with different concentrations of H89 at 22° C. for 30 min. At the same time, DMSO and A23187 treated negative control group and positive control group platelets were established. Caspase-3, gelsolin protein expression and caspase-3 activity in platelets were detected by Western blot. […]

caspase-3 = test: Western blot of caspase-3, gelsolin and caspase-3 activity in platelets; format: cell-based, human; conditions: different concentrations of H89, 22° C., 30 min
Description: Washed platelets were incubated with different concentrations of H89 (25 μM, 50 μM, and 100 μM) or negative control (DMSO) at room temperature for 10 min. The reaction was stopped by the addition of 2× cell lysis buffer (containing 2 mM PMSF, 2 mM NaF, 2 mM Na3VO4, and protease inhibitor), and the platelets were lysed on ice, and sampled. The samples were tested for expression of the corresponding proteins by Western blotting.
as §1, with “blot. The FITC-labeled anti-CD41 antibody was mixed with the pre-treated platelets at a ratio of 1:10, and incubated at room temperature for 10 min in the dark. Analyzing the platelet size scatter plot, the decrease in the CD41 positive cell count represents a decrease in the platelet count.” for “blot.”

washed platelets [3] = test: Scanning electron microscopy of platelet morphology; format: cell-based, human; conditions: 22° C., 160 min
Description: The washed platelets were fixed with 2.5% […] at 4° C. overnight. The washed platelets were sent to a scanning electron microscope sample room for sample preparation. Morphological analysis of the platelets was carried out by the scanning electron microscope (Japan Hitachi, 5-4700). Five different fields of view were selected for observation and photographing.
as §1, with “blot. The FITC-labeled anti-CD41 antibody was mixed with the pre-treated platelets at a ratio of 1:10, and incubated at room temperature for 10 min in the dark. Analyzing the platelet size scatter plot, the decrease in the CD41 positive cell count represents a decrease in the platelet count.” for “blot.”

BAD position 155 = test: Western blot / co-immunoprecipitation of BAD Ser155 phosphorylation and Bel-xL in platelets; format: cell-based, human; conditions: 37.5 uM H89 or 10 uM forskin, 160 min
Description: Next, we further explored the mechanism by which PKA inhibits induction of platelet apoptosis. At room temperature, 3×10^8/mL washed platelets were incubated with different concentration gradients of H89 or the DMSO internal reference for 160 min. The platelets were lysed on ice for 30 min with an equal volume of lysis buffer. The product was electrophoretically separated by SDS-PAGE to obtain protein fragments of different sizes. The protein fragments were blocked in skim milk powder for one hour and then the primary antibody was added for incubation. […] The washed platelets were pretreated with 37.5 uM H89, 10 uM forskin and the DMSO internal reference respectively for 160 min at room temperature. Cytoplasmic proteins (FIG. 8B) and mitochondrial proteins (FIG. 8D) were extracted from the platelets, respectively. The interest proteins were detected by western blot. The amount of the interest proteins was analyzed by Image J software. Four experiments were counted to show the results in mean±standard deviation. After lysis, the pre-treated platelets were centrifuged at 17,000 g for 10 min at 4° C. The obtained supernatant was incubated with the corresponding antibody for precipitation overnight, and after incubation with protein A/G+ agarose beads at 4° C. for 2 hours, the beads were eluted for protein hybridization (FIG. 8C).

stored platelets = test: Clearance of stored platelets in the body; conditions: in vivo
Excerpt: In addition to apoptosis, there are other changes in storage damage that result in the clearance of stored platelets in the body. Therefore, we investigated whether PKA activation protects platelet from apoptosis while preventing the stored platelets from being cleared.

washed platelets [4] = test: Mitochondrial membrane potential (ΔΨm) detection with JC-1 by flow cytometer; format: cell-based, human
Description: When washed platelets were prepared, venous blood from healthy volunteers was anticoagulated with ACD (2.5% sodium citrate, 2.0% glucose, and 1.5% citric acid) at 1:7, platelet-rich plasma (PRP) was obtained by centrifugation at 1300 rpm for 20 min, the PRP was centrifuged at 1500 g for 2 min, and the supernatant was discarded. The precipitated platelets were suspended, centrifuged and washed with CGS buffer (0.123 M sodium chloride, 0.033 M glucose, 0.013 M sodium citrate, pH 6.5). […] The platelets were counted by a counter. […]
Washed platelets (3×10^8/mL) were incubated with different concentrations of H89 (12.5 μM, 25 μM, 37.5 μM and 50 μM) or negative control (DMSO) for 10 min at room temperature, and then platelet ΔΨm was determined using the lipophilic cationic dye JC-1. JC-1 with a final concentration of 2 μg/ml was added to the treated platelets, and the platelets were incubated at 37° C. for 20 min in the dark, and detected by using a flow cytometer. […] The JC-1 monomer (λex 514 nm, λem 529 nm) and the polymer (λex 585 nm, λem 590 nm) were determined by calculating the proportion of flow red fluorescence (JC-1 polymer) or green fluorescence (JC-1 monomer). […]

Cn1c(=O)c2[nH]cnc2n(C)c1=O [Aminophylline, aminophylline]
platelet clearance in vivo (platelets; aminophylline 0.24 mmol/L, R300 0.1 μg/g after 10 min): can Inhibit

O=S(=O)(c1cccc2cnccc12)N1CCCNCC1 [Fasudil]
platelet apoptosis (washed platelets [1]): can Promote

O=S(=O)(NCCNCC=Cc1ccc(Br)cc1)c1cccc2cnccc12 [H89, N-[2-((p-bromocinnamyl)amino)ethyl]-5-isoquinoline sulfonamide]
forward scatter (FSC) of GPIIb/IIIa-positive platelets (shrinkage) (washed platelets [2]): decrease | activation of caspase-3 (caspase-3): dose-dependently induced | digestion of caspase-3 substrate gelsolin (caspase-3): dose-dependently induced | typical apoptotic morphological changes (membrane vesicles, pseudopods, shrinkage, degranulation) (washed platelets [3]): dose-dependently induce | Bel-xL protein on the mitochondrial membrane (BAD position 155): decrease | co-immunoprecipitation of Bel-xL and BAD (BAD position 155): significantly reduced | phosphorylation of serine at the BAD position 155 (BAD position 155; room temperature): decreased | clearance of stored platelets by the body (stored platelets): speeds up the clearance | ΔΨm depolarization in platelets, time dependence (washed platelets [4]): in a time-dependent manner | mitochondrial membrane potential (ΔΨm) depolarization in platelets, dose dependence (washed platelets [4]; H89 0, 12.5, 25, 37.5, 50 μM, 22° C., 160 min): dose-dependently induced

CCCCC[C@H](O)/C=C/[C@H]1[C@H](O)CC(=O)[C@@H]1C/C=C\CCCC(=O)O [PGE2, prostaglandin E2]
platelet counts versus NS group at 30 min (platelets): has statistic difference

Nc1ncnc2c1ncn2[C@@H]1O[C@@H]2COP(=O)(O)O[C@H]2[C@H]1O [cAMP, cyclic adenosine monophosphate]
platelet counts versus NS group at 30 min (platelets): has statistic difference

Cc1[nH]c(=O)c(C#N)cc1-c1ccncc1 [milrinone]
platelet counts in peripheral blood of mice (platelets; milrinone 1 mg/kg tail vein, R300 0.1 mg/kg i.p. after 10 min, vs NS): significantly increased
